In PubChem BioAssay (NCI):
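Five concentrations, 48 hours, 96-well plates. TGI: total growth inhibition.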

What was measured:
Assay in all cases: NCI anticancer screen, dose series, 48 h
RXF 393 renal = tested on: RXF 393 renal
SNB-75 CNS = tested on: SNB-75 CNS
HOP-62 NSCLC = tested on: HOP-62 NSCLC
IGROV1 ovarian = tested on: IGROV1 ovarian
DMS 114 small cell lung = tested on: DMS 114 small cell lung
M19-MEL melanoma = tested on: M19-MEL melanoma
786-0 renal = tested on: 786-0 renal
KM20L2 colon = tested on: KM20L2 colon
ACHN renal = tested on: ACHN renal
K-562 leukemia = tested on: K-562 leukemia
SK-OV-3 ovarian = tested on: SK-OV-3 ovarian
U251 CNS = tested on: U251 CNS
SNB-78 CNS = tested on: SNB-78 CNS
OVCAR-8 ovarian = tested on: OVCAR-8 ovarian
DMS 273 small cell lung = tested on: DMS 273 small cell lung
SK-MEL-28 melanoma = tested on: SK-MEL-28 melanoma
OVCAR-3 ovarian = tested on: OVCAR-3 ovarian
HCT-116 colon = tested on: HCT-116 colon
CCRF-CEM leukemia = tested on: CCRF-CEM leukemia
OVCAR-4 ovarian = tested on: OVCAR-4 ovarian
SK-MEL-2 melanoma = tested on: SK-MEL-2 melanoma
EKVX NSCLC = tested on: EKVX NSCLC
LXFL 529 NSCLC = tested on: LXFL 529 NSCLC
SF-539 CNS = tested on: SF-539 CNS
RPMI-8226 leukemia = tested on: RPMI-8226 leukemia
DLD-1 colon = tested on: DLD-1 colon
UACC-62 melanoma = tested on: UACC-62 melanoma
HT29 colon = tested on: HT29 colon
A498 renal = tested on: A498 renal
HCT-15 colon = tested on: HCT-15 colon
NCI-H226 lung = tested on: NCI-H226 lung
OVCAR-5 ovarian = tested on: OVCAR-5 ovarian
SW-620 colon = tested on: SW-620 colon
NCI-H23 lung = tested on: NCI-H23 lung
MALME-3M melanoma = tested on: MALME-3M melanoma
XF 498 CNS = tested on: XF 498 CNS
MOLT-4 leukemia = tested on: MOLT-4 leukemia
M14 melanoma = tested on: M14 melanoma
KM12 colon = tested on: KM12 colon
SK-MEL-5 melanoma = tested on: SK-MEL-5 melanoma
UACC-257 melanoma = tested on: UACC-257 melanoma
CAKI-1 renal = tested on: CAKI-1 renal
UO-31 renal = tested on: UO-31 renal
TK-10 renal = tested on: TK-10 renal
HCC-2998 colon = tested on: HCC-2998 colon
A549 NSCLC = tested on: A549 NSCLC
RXF-631 renal = tested on: RXF-631 renal
HL-60(TB) leukemia = tested on: HL-60(TB) leukemia
NCI-H460 lung = tested on: NCI-H460 lung

`CCOC(=O)c1cccc(=O)c(C(=O)OCC)c1` gave a TGI (RXF 393 renal) greater than 100 µM, a TGI (SNB-75 CNS) greater than 100 µM and a TGI (HOP-62 NSCLC) greater than 100 µM. The TGI (IGROV1 ovarian) was greater than 100 µM, the TGI (DMS 114 small cell lung) was greater than 100 µM and the TGI (M19-MEL melanoma) was greater than 100 µM. It also gave a TGI (786-0 renal) greater than 100 µM, a TGI (KM20L2 colon) greater than 100 µM and a TGI (ACHN renal) greater than 100 µM. For the same compound, the TGI (K-562 leukemia) was greater than 100 µM, the TGI (SK-OV-3 ovarian) was greater than 100 µM and the TGI (U251 CNS) was greater than 100 µM. For the same compound, the TGI (SNB-78 CNS) was greater than 100 µM, the TGI (OVCAR-8 ovarian) was greater than 100 µM and the TGI (DMS 273 small cell lung) was greater than 100 µM. The TGI (SK-MEL-28 melanoma) was greater than 100 µM, the TGI (OVCAR-3 ovarian) was greater than 100 µM and the TGI (HCT-116 colon) was greater than 100 µM. It also gave a TGI (CCRF-CEM leukemia) of 65.9 µM, a TGI (OVCAR-4 ovarian) greater than 100 µM and a TGI (SK-MEL-2 melanoma) greater than 100 µM. The TGI (EKVX NSCLC) was greater than 100 µM, the TGI (LXFL 529 NSCLC) was greater than 100 µM and the TGI (SF-539 CNS) was 75.9 µM. It also gave a TGI (RPMI-8226 leukemia) greater than 100 µM, a TGI (DLD-1 colon) greater than 100 µM and a TGI (UACC-62 melanoma) greater than 100 µM. It also gave a TGI (HT29 colon) greater than 100 µM, a TGI (A498 renal) greater than 100 µM and a TGI (HCT-15 colon) greater than 100 µM. The TGI (NCI-H226 lung) was 45.4 µM, the TGI (OVCAR-5 ovarian) was greater than 100 µM and the TGI (SW-620 colon) was greater than 100 µM. For the same compound, the TGI (NCI-H23 lung) was greater than 100 µM, the TGI (MALME-3M melanoma) was greater than 100 µM and the TGI (XF 498 CNS) was greater than 100 µM. For the same compound, the TGI (MOLT-4 leukemia) was greater than 100 µM, the TGI (M14 melanoma) was greater than 100 µM and the TGI (KM12 colon) was greater than 100 µM. For the same compound, the TGI (SK-MEL-5 melanoma) was greater than 100 µM, the TGI (UACC-257 melanoma) was greater than 100 µM and the TGI (CAKI-1 renal) was greater than 100 µM. For the same compound, the TGI (UO-31 renal) was greater than 100 µM, the TGI (TK-10 renal) was greater than 100 µM and the TGI (HCC-2998 colon) was greater than 100 µM. For the same compound, the TGI (A549 NSCLC) was greater than 100 µM, the TGI (RXF-631 renal) was greater than 100 µM and the TGI (HL-60(TB) leukemia) was 62.1 µM. The TGI (NCI-H460 lung) was greater than 100 µM.
